Literature values in US7569576B2, “Cyclic 1-(acyloxy)-alkyl prodrugs of GABA analogs, compositions and uses thereof” (XenoPort, Inc., priority 2002, dated 2009).

## O=C1CC2(CCCCC2)CN1 [lactam 9]
  toxicity (LD50, mouse): 300 mg/kg

## NCC1(CC(=O)O)CCCCC1 [gabapentin]
  toxicity (LD50, mouse): more than 8000 mg/kg
